Assay results taken from ChEMBL document CHEMBL1152339, “Use of the in vivo hollow fiber assay in natural products anticancer drug discovery” (J Nat Prod, 2009).

How the values were obtained:
Format in all cases: functional
KB [1] = test: Growth inhibition of human KB cells xenografted in NCr nu/nu mouse at 6.25 to 25 mg/kg, ip once daily administered from day 3 to 6 after implantation measured on day 7 by MTT-based hollow-fiber test; conditions: route intraperitoneal
KB [2] = test: Growth inhibition of human KB cells xenografted in NCr nu/nu mouse at 6.25 to 25 mg/kg, sc once daily administered from day 3 to 6 after implantation measured on day 7 by MTT-based hollow-fiber test; conditions: route subcutaneous
LNCaP [3] = test: Growth inhibition of human LNCAP cells xenografted in NCr nu/nu mouse at 6.25 to 25 mg/kg, ip once daily administered from day 3 to 6 after implantation measured on day 7 by MTT-based hollow-fiber test; conditions: route intraperitoneal
LNCaP [4] = test: Growth inhibition of human LNCAP cells xenografted in NCr nu/nu mouse at 6.25 to 25 mg/kg, sc once daily administered from day 3 to 6 after implantation measured on day 7 by MTT-based hollow-fiber test; conditions: route subcutaneous
Col2 [5] = test: Growth inhibition of human Col2 cells xenografted in NCr nu/nu mouse at 6.25 to 25 mg/kg, ip once daily administered from day 3 to 6 after implantation measured on day 7 by MTT-based hollow-fiber test; conditions: route intraperitoneal
Col2 [6] = test: Growth inhibition of human Col2 cells xenografted in NCr nu/nu mouse at 6.25 to 25 mg/kg, sc once daily administered from day 3 to 6 after implantation measured on day 7 by MTT-based hollow-fiber test; conditions: route subcutaneous
LNCaP [7] = test: Growth inhibition of human LNCAP cells xenografted in ip dosed NCr nu/nu mouse administered once daily from day 3 to 6 after implantation measured on day 7 by MTT-based hollow-fiber test
Col2 [8] = test: Growth inhibition of human Col2 cells xenografted in ip dosed NCr nu/nu mouse administered once daily from day 3 to 6 after implantation measured on day 7 by MTT-based hollow-fiber test
SW626 [9] = test: Growth inhibition of human SW626 cells xenografted in ip dosed NCr nu/nu mouse administered once daily from day 3 to 6 after implantation measured on day 7 by MTT-based hollow-fiber test
KB [10] = test: Growth inhibition of human KB cells xenografted in NCr nu/nu mouse at 3.75 to 30 mg/kg, ip once daily administered from day 3 to 6 after implantation measured on day 7 by MTT-based hollow-fiber test; conditions: route intraperitoneal
KB [11] = test: Growth inhibition of human KB cells xenografted in NCr nu/nu mouse at 3.75 to 30 mg/kg, sc once daily administered from day 3 to 6 after implantation measured on day 7 by MTT-based hollow-fiber test; conditions: route subcutaneous
SW626 [12] = test: Growth inhibition of human SW626 cells xenografted in NCr nu/nu mouse at 3.75 to 30 mg/kg, ip once daily administered from day 3 to 6 after implantation measured on day 7 by MTT-based hollow-fiber test; conditions: dose mg/kg 3-6; route intraperitoneal
SW626 [13] = test: Growth inhibition of human SW626 cells xenografted in NCr nu/nu mouse at 3.75 to 30 mg/kg, sc once daily administered from day 3 to 6 after implantation measured on day 7 by MTT-based hollow-fiber test; conditions: dose mg/kg 3-6; route subcutaneous

Row | Structure (SMILES) | growth inhibition (GI) (KB [1]) [%] | growth inhibition (GI) (KB [2]) [%] | growth inhibition (GI) (LNCaP [3]) [%] | growth inhibition (GI) (LNCaP [4]) [%] | growth inhibition (GI) (Col2 [5]) [%] | growth inhibition (GI) (Col2 [6]) [%] | ED50 (LNCaP [7]) [nM] | ED50 (Col2 [8]) [nM] | ED50 (SW626 [9]) [nM] | growth inhibition (GI) (KB [10]) [%] | growth inhibition (GI) (KB [11]) [%] | growth inhibition (GI) (SW626 [12]) [%] | growth inhibition (GI) (SW626 [13]) [%]
1 | CC(=O)O[C@H]1O[C@H]([C@@H]2c3cccc(O)c3C(=O)c3c(O)cc(C)cc32)[C@H](O)[C@@H](OC(=O)C=C(C)C)[C@H]1O [ALVARADOIN G] | 79 | 13 | 52 | 24 | 84 | 0 | 290 | 1300 | – | – | – | – | –
2 | CC(=O)O[C@H]1C(=O)[C@@]2(C)[C@H]([C@H](OC(=O)c3ccccc3)[C@]3(O)C[C@H](OC(=O)[C@H](O)[C@@H](NC(=O)c4ccccc4)c4ccccc4)C(C)=C1C3(C)C)[C@]1(OC(C)=O)CO[C@@H]1C[C@@H]2O [PACLITAXEL] | – | – | – | – | – | – | – | – | 0.012 | 70 | 20 | 98 | 0
